Patent publication US10028956B2, “Methods of treating various cancers using an AXL/cMET inhibitor in combination with other agents” (Ignyta, Inc., priority 2013, dated 2018)

How the values were obtained:
[1] = target: T1, AXL (Homo sapiens, UniProt P30530); assay: Dissociation from AXL, LanthaScreen Eu-kinase binding assay
T1 sequence (P30530 26-894): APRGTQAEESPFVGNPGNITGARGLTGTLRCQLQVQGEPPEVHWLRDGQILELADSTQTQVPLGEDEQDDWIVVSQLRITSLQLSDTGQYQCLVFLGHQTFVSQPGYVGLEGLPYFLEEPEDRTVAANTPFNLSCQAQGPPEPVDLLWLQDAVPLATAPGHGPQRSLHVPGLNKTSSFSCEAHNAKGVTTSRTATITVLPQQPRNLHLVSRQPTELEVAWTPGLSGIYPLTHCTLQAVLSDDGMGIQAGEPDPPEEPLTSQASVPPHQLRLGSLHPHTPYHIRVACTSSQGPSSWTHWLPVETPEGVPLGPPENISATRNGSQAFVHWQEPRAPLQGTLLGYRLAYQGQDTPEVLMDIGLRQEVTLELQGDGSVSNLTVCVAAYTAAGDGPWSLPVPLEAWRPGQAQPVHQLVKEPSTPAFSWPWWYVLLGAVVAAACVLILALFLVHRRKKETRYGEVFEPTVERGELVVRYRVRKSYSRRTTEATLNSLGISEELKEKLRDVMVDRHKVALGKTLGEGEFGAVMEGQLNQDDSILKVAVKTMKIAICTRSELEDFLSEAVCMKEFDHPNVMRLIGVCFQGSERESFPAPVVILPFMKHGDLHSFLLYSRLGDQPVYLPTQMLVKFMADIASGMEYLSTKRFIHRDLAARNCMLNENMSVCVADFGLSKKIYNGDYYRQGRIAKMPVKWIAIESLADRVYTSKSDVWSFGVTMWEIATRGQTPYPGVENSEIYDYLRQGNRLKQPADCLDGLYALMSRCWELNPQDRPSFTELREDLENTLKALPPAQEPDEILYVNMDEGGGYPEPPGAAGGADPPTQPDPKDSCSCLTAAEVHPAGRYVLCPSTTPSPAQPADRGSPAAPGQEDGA
Procedure: Assay buffer was prepared as for association, and used for all dilutions. A 5-μL aliquot of 80 nM LanthaScreen Eu-anti-GST antibody:20 nM GST-tagged enzyme mix was added to the Greiner low volume white 384-well plate, with antibody only added to control wells. Compound (100 nL) in DMSO was added by pintool at 2000-fold over the final assay concentration. DMSO was added to no inhibitor control wells. After a one-hour incubation at ambient temperature to allow formation of the enzyme-inhibitor complex, 2 μL of the reaction mix was transferred to a 384 Optiplate (PerkinElmer) and 78 μL of kinase tracer 236 was added. The final tracer concentration was 100 nM for AXL and 200 nM for c-Met. Readings were immediately initiated and total of 60 time points were taken at 2-min intervals, at 25° C. or 37° C. The background subtracted ratio was normalized to the no inhibitor control to calculate the % tracer bound, which was plotted with respect to time. The data was fitted to the one phase association model in GraphPad Prism (La Jolla Calif.).

[2] = test system: NIH3T3/AXL tumor xenografts; assay: Anti-tumor efficacy in NIH3T3/AXL tumor xenografts; type: in vivo, mice; conditions: 0.3, 1 or 10 mg/kg PO qd, all doses tested
Procedure: The engineered NIH3T3/AXL cell line was generated as follows. The human AXL cDNA was subcloned into the pQCXIP vector and the sequences were confirmed by sequencing at Children's Hospital of Philadelphia. PT67 cells (5×10^5) in 4 mL DMEM+10% FBS were seeded in each well of 6-well plates (Cat^#353046, Becton Dickinson, Franklin Lakes, N.J.) and cultured at 37° C. in a humidified incubator with 5% CO2 overnight. The cells were transfected with 2 μg of pQCXIP-AXL with Lipofectamine™ 2000 (Cat#52887, Invitrogen, Carlsbad, Calif.) transfection reagent per the manufacturer's protocol. In brief, the DNA in 500 μL culture media was mixed with 500 μL media containing 20 μL Lipofectamine™ 2000 transfection reagent, and the mixture was incubated at room temperature for 20 minutes. […]
NIH3T3/AXL cells were collected and resuspended in DMEM medium at density of 5×10^7/mL. […] The mice were monitored and the tumor sizes were measured. […] The length (L) and width (W) of each tumor were measured with a vernier caliper and the mouse body weight was determined every two to three days. Tumor volumes were calculated with the formula of 0.5236*L*W*(L+W)/2. […] Plasma and tumor samples were obtained at 2 hours post final dose at each dose level, and the compound levels in plasma and tumor lysates were measured by LC-MS/MS.

In the case of `COc1cc2nccc(Oc3ccc(NC(=O)c4cn(C(C)C)c(=O)n(-c5ccc(F)cc5)c4=O)cc3F)c2cc1OC` [CEP-40783, 3-(4-Fluorophenyl)-1-isopropyl-2,4-dioxo-1,2,3,4-tetrahydropyrimidine-5-carboxylic acid [4-(6,7-dimethoxyquinolin-4-yloxy)-3-fluorophenyl]-amide], the “off-rate from AXL” value ([1]; 25° C.) is reported as “very slow”, the “dissociation rate from AXL at higher temperature” value ([1]; 37° C. versus 25° C.) is reported as “slightly enhanced” and the “anti-tumor efficacy (tumor volume)” value [2] is reported as “complete tumor regressions”.
